# In publication PMC12040169 (PLOS Biology, 2025):
# Test: in vitro
# Details: human, hela cells, % viability
row,SMILES,"viability at 28.5 h, 10 µM [%]"
1,COc1ccc(Cl)cc1S(=O)(=O)N1CCC(C(=O)NCCCO)CC1 [CBK269835],99
2,COc1ccc(S(=O)(=O)NCCN2CCOCC2)cc1Br [CBK269838],91.4
3,COc1nc2ccccc2nc1CCc1nc(-c2ccccc2)no1 [CBK269840],86
4,c1ccc2c(c1)nc(N1CCOCC1)n2CCN1CCOCC1 [CBK269841],99.6
5,Cc1ccc(CN2CCNCC2CCO)o1 (centres unmarked) [CBK269844],92.3
6,O=C(Nc1cccnc1)c1cccc(S(=O)(=O)N2CCCC2)c1 [CBK269846],93.3
7,CCNC(=O)N1C(CC(=O)Nc2cccc(OC)c2)C(=O)NC2CCCCC21 (centres unmarked) [CBK269848],90.6
8,COc1ccccc1CNCCc1ccc(S(N)(=O)=O)cc1 [CBK269852C],99.7
9,COc1ccc(Cl)cc1C(=O)Nc1cnn(CCCC(=O)O)c1 [CBK269855],80.7
10,O=C(CCC1COc2ccccc2O1)Nc1ccc(C(=O)O)cc1 (centres unmarked) [CBK269856],89.7
11,C=CCN(Cc1nc(-c2ccccc2)no1)C(=O)Nc1ccc(C)cc1 [CBK269859],103
12,COc1cc(CNCCc2c[nH]c3ccccc23)cc(Cl)c1OC [CBK269861C],88.5
13,N#Cc1ccccc1Cn1cc(C(=O)C(N)=O)c2ccccc21 [CBK269862],93.5
14,CC(C)N(Cc1nc(-c2ccccc2)no1)C(=O)Nc1cccc(Cl)c1 [CBK269871],93.5
15,Cc1ccc(NC(=O)CSc2nnc(-c3cnccn3)s2)cc1 [CBK269872],83.3
16,COc1cc2c(cc1OC)C(C)N(C(=O)CCC(=O)O)CC2 (centres unmarked) [CBK269873],92.5
17,CCOc1cc(S(=O)(=O)NCCCn2ccnc2)ccc1Cl [CBK269874],89
18,Cc1ccnc(SCc2cc(=O)c3c(=O)n(-c4ccccc4)[nH]c3[nH]2)n1 [CBK269875],110
19,COc1ccc(Cl)cc1S(=O)(=O)N1CCC(C(=O)NCc2cccnc2)CC1 [CBK269878],93.4
20,COc1cccc(C(=O)Nc2cnn(CCCC(=O)O)c2)c1 [CBK269879],89.6
21,O=C(NCCc1c[nH]cn1)NC12CC3CC(CC(C3)C1)C2 [CBK269880],86.2
22,COc1ccc(CNC(=O)CSc2cnn[nH]2)cc1 [CBK269881],85.6
23,O=C(O)Cn1nnc(-c2ccncc2)n1 [CBK269884],86.6
24,Cc1cc(S(=O)(=O)N2CCCC2)ccc1OCC(=O)NCc1ccncc1 [CBK269886],91.3

row,SMILES,"viability at 28.5 h, 10 µM [%]"
1,Cc1ccc(SCCNc2nc3c([nH]2)c(=O)n(C)c(=O)n3C)cc1 [CBK269887],92.7
2,O=C(Nc1ccc(N2CCOCC2)cc1)c1ccc(-n2cnnc2)cc1Cl [CBK269889],91
3,COCCn1c(CN2CCOCC2)nc2c1c(=O)[nH]c(=O)n2C [CBK269890],100
4,Nc1nc2c(s1)c(=O)[nH]c(=O)n2-c1ccc(Cl)cc1 [CBK269891],78.1
5,COc1c(C)cc(S(=O)(=O)NCCN2CCOCC2)c(C)c1C [CBK269893],94.1
6,Cc1cc(NS(=O)(=O)N2CCOCC2)no1 [CBK269894],89.9
7,COc1ccc(CCNc2nc3c([nH]2)c(=O)n(C)c(=O)n3C)cc1 [CBK269897],85.5
8,CC(=O)Nc1ccc(NC(=O)C2COc3ccccc3O2)cc1C (centres unmarked) [CBK269898],99.1
9,Fc1ccc(COc2ccc(Cl)cc2CNCc2ccccn2)cc1 [CBK269899C],85.5
10,O=C(NCc1ccco1)c1cc(S(=O)(=O)N2CCOCC2)ccc1Br [CBK269907],90.7
11,Cc1ccc2[nH]c(SCc3nc(O)c4ccccc4n3)nc2c1 [CBK269908],84
12,COc1ccc2c(c1)c1nc(C)sc1n2CCN1CCCCC1 [CBK269909C],93.3
13,O=S(=O)(NCCCn1ccnc1)c1cccs1 [CBK269912],95.1
14,COc1ccc2oc(C(=O)NCCN3CCOCC3)c(C)c2c1OC [CBK269913C],86.8
15,COc1ccc(CNc2ccc(N3CCOCC3)c(C(=O)O)c2)cc1OC [CBK269915],95.2
16,O=C(CSc1nc2cc(Cl)ccc2[nH]1)Nc1ccccc1F [CBK269916],84.8
17,COc1ccc(Cl)cc1S(=O)(=O)N(C)CC(=O)O [CBK269919],97.1
18,Cc1nc(SCC(=O)O)nc(O)c1CCC(C)C [CBK269920],92.9
19,Cc1ccc(C)c(OCC(=O)Nc2ccccc2C(=O)N2CCN(C)CC2)c1 [CBK269924],91.1
20,Cc1cc(C)n(CC(=O)NCC2CCCO2)c(=O)c1C#N (centres unmarked) [CBK269926],85.4
21,OCc1nnc2c3ccccc3c(-c3ccccc3)nn12 [CBK269927],94.2
22,CCOc1ccc(-c2cnc(SCC(=O)O)nc2N)cc1 [CBK269928],105
23,CC(C)(C)c1ccc(C(=O)Nc2cnn(CCCC(=O)O)c2)cc1 [CBK269929],94.2
24,CC(NC(=O)OC(C)(C)C)c1nnc(SCC(=O)N(C)C)o1 (centres unmarked) [CBK269932],88.3

row,SMILES,"viability at 28.5 h, 10 µM [%]"
1,CCNC(=O)c1ccccc1NC(=O)C(C)Oc1ccccc1 (centres unmarked) [CBK269933],85.8
2,CCOc1ccc2ccccc2c1CNCc1cccnc1 [CBK269934C],91.8
3,O=C(O)COc1ccc(S(=O)(=O)N2CCCc3ccccc32)cc1 [CBK269935],110
4,CCOC(=O)CSc1nc(=O)cc(N)n1Cc1ccc(F)cc1 [CBK269938],91.1
5,OCCn1c(COc2cccc3cccnc23)nc2ccccc21 [CBK269942],79.5
6,O=S(=O)(NCc1cccnc1)N1CCOCC1 [CBK269945],85.1
7,Cc1nn(Cc2cccc3ccccc23)c(C)c1NC(=O)c1cccnc1 [CBK269946],90.6
8,CNCc1cccc(OC)c1OCc1ccccc1F [CBK269949C],99.2
9,CC(=O)Nc1cccc(NC(=O)CN(C)S(=O)(=O)c2ccc(F)cc2)c1 [CBK269951],90.2
10,CCOc1ccc(S(=O)(=O)N(C)CC(=O)N2CCN(C)CC2)cc1 [CBK269953],93.8
11,CCOc1cc(C)c(Cl)cc1S(=O)(=O)NCc1ccncc1 [CBK269954],85.8
12,Cc1[nH]c2cc(C(=O)O)ccc2c1CC(=O)O [CBK269955],98
13,COc1ccc(OC)c(NC(=O)NCCc2c[nH]cn2)c1 [CBK269956],92.4
14,NS(=O)(=O)c1ccc(-c2nc(-c3ccccc3)no2)cc1 [CBK269957],87.8
15,CCOc1ccc(C(=O)Nc2ccc(S(=O)(=O)N3CCN(C)CC3)cc2)cc1 [CBK269959],85.5
16,Cc1nn(CCC(=O)NCc2ccco2)c(C)c1Cl [CBK269961],88.8
17,O=C(NCCc1c[nH]c2ccc(F)cc12)Nc1ccccc1 [CBK269964],107
18,CCOC(=O)CC1C(=O)NCCN1Cc1cccc(C)n1 (centres unmarked) [CBK269965],101
19,O=C(O)CCCn1cc(NC(=O)c2cc(F)c(F)cc2Cl)cn1 [CBK269967],87.8
20,CCOc1ccc(S(=O)(=O)N2CCCC(C(=O)NCCO)C2)cc1 (centres unmarked) [CBK269968],83.8
21,COc1ccc(NC(=O)CSc2cnn[nH]2)c(OC)c1 [CBK269969],76.7
22,Cc1cc(C)nc(Nc2noc(-c3ccccc3)n2)n1 [CBK269971],94.5
23,CCOc1ccc(N2C(=O)CC(NC3CCN(c4ncccn4)CC3)C2=O)cc1 (centres unmarked) [CBK269972],112
24,CCOc1cccc(CNc2ccc(N3CCOCC3)c(C(=O)O)c2)c1 [CBK269973],92.9

row,SMILES,"viability at 28.5 h, 10 µM [%]"
1,O=C(NCCc1cnc[nH]1)NC1CCCCC1 [CBK269975],100
2,CN1CCN(c2nc3c([nH]2)c(=O)n(C)c(=O)n3C)CC1 [CBK269976],86.1
3,Oc1c(CN2CCOCC2)ccc(CN2CCOCC2)c1O [CBK269979],100
4,O=C(Nc1ccccc1)c1cccc(S(=O)(=O)NCc2ccncc2)c1 [CBK269980],102
5,COc1cc(CNC(C)c2ccccc2)ccc1OCC(N)=O (centres unmarked) [CBK269982C],92.8
6,O=C(COc1ccc2c(c1)OCO2)NCc1ccccn1 [CBK269983],95.3
7,Cc1cn2c3c(=O)n(CCN4CCOCC4)c(=O)n(C)c3nc2n1CC1CCCO1 (centres unmarked) [CBK269985],92.3
8,O=C(O)CNS(=O)(=O)c1c(F)c(F)c(F)c(F)c1F [CBK269986],84.6
9,Fc1ccc(COc2cccc(CNCc3ccccn3)c2)cc1 [CBK269987C],109
10,COc1cc(S(=O)(=O)NCc2ccncc2)c(C)cc1C [CBK269988],91.8
11,NC(=O)c1c(NC(=O)CSC2=NCCS2)sc2c1CCCC2 [CBK269989],87.9
12,Cc1nn(Cc2cccc3ccccc23)c(C)c1NC(=O)c1ccncc1 [CBK269990],93.4
13,O=C(CSc1nnc(-c2ccccn2)[nH]1)NC1CC2CCC1C2 (centres unmarked) [CBK269994],83
14,COc1ccc(S(=O)(=O)NCCCn2ccnc2)cc1Cl [CBK269997],97.2
15,O=C(CSCc1ccc(Cl)c(Cl)c1)Nc1ncccn1 [CBK269998],89.7
16,COc1ccc(S(=O)(=O)NCCN2CCOCC2)c(Cl)c1Cl [CBK269999],95
17,COc1ccc(OCc2nnn[nH]2)cc1 [CBK270000],89.9
18,CC(C)C(NS(=O)(=O)c1ccccc1)C(=O)Nc1ccccc1 (centres unmarked) [CBK270001],87.8
19,Cn1nc(C(=O)NCc2ccccc2)cc1C(=O)NCc1ccccc1 [CBK270004],92
20,Cc1ccc(CN2C(=O)CC(Sc3ncccc3C(=O)O)C2=O)cc1 (centres unmarked) [CBK270006],91.2
21,Cc1cccc(Cn2nc(C)c(NC(=O)COc3ccccc3)c2C)c1 [CBK270007],93.5
22,O=C(O)CC1C(=O)NCCN1Cc1ccc(F)c(F)c1 (centres unmarked) [CBK270008],85.3
23,COc1cccc(CNC2CC2)c1OCc1ccccc1 [CBK270009C],90.6
